# From patent US9278068B2, “Vesicle compositions” (Sensulin LLC, priority 2011, dated 2016)
# Legend:
# [1] = Binding assay: competition with ConA-FITC on glucose-terminated magnetic beads; details: relative to ConA; 2.4 μM ConA-FITC, boronic acid 2.5 μM to 20 μM, PBS pH 7.2
# Protocol: The binding affinity of boronic acid derivatives to glucose was determined by competition assay using ConcanavalinA (ConA) as the competitive standard, and varying concentrations of the boronic acid derivatives. Carboxy-terminated magnetic beads were activated by suspending the beads in 100 mM 2-(N-morpholino)ethanesulfonic acid (MES) buffer (pH 4.5). Glucosamine (100 mg/mL) was conjugated to the activated magnetic beads using carbodiimide coupling with 1-ethyl-3-(3-dimethylaminopropyl)carbodiimide (EDC) as a crosslinker. The conjugation reaction was carried out in a 96 well plate. The reaction was run for 24 h. The beads were separated by placing the microplate on a magnetic separator and were washed thoroughly with PBS at pH 7.2 to remove unbound glucose, excess EDC, and N-hydroxysulfosuccinimide (Sulfo-NHS).
# The glucose terminated beads were co-incubated for 1 h with 2.4 μM ConA (a known binder of carbohydrates) fluorescently tagged with fluorescein isothiocyanate (ConA-FITC), and titrated with concentrations ranging from 2.5 μM to 20 μM of each boronic acid derivative tested. The following controls were used: (A) carboxy-terminated magnetic beads (not conjugated to glucose) were treated with ConA-FITC to determine non-specific binding; and (B) glucose conjugated beads were treated with a high concentration of non-fluorescent ConA to determine maximal binding.
# The wells were washed three times with PBS at pH 7.2 to remove unbound boronic acid derivatives and FITC-ConA. The beads were re-suspended in PBS and stirred for 15 min at rt before measuring FITC fluorescence (excitation: 495 nm, top emission: 520 nm; 6 flashes per well; average of n=3 wells in a Flexstation 11^384 microplate reader to quantify the amount of glucose bound to the boronic acids). The fluorescence intensity was measured and used as an indication of the amount of ConA bound to the surface of the beads, or [ConAs]. The ConA-sugar interaction was expected to be inhibited by the boronic acid derivatives, which can bind the sugar molecules and displace the bound ConA-FITC, thereby causing a decrease in fluorescence intensity of the mixture.
# The binding constant of the boronic acid derivatives was calculated from the fluorescence intensity. The reduction of fluorescence intensity is related to [ConAs] by Equation 2.
# [formula] The relationship between [ConAs] and the amount of boronic acid [BA] is given by Equation 3.
# [formula] Simple rearrangement yields Equation 4, from which the ratio of the two equilibrium constants (KConA/KBA) can be derived.
# [formula] • The concentration of sugar sites (S1) can be calculated from the intercept of a plot of 1/[ConAs] vs 1/[BA].
# HeLa cells = test: MTT assay for cytotoxicity; details: 2 h
# NF-κB = NF-κB assay for inflammation (nuclear translocation of NF-κB, immunocytochemistry, PCC); details: HeLa cells; for Inflammation (PCC) 40 nM / Inflammation (PCC) 80 nM / Inflammation (PCC) 160 nM: 2 h, PCC between nuclear and cytoplasmic fraction of NF-κB
# Protocol: 15,000 HeLa cells were plated in 96 well plates the night before the experiments. On the day of the experiments, the cells were treated with the boronic acids (Table 1, below) at three different concentrations (40 nM, 80 nM, and 160 nM) for 2 h. At the end of the incubation, cells were washed with phosphate buffered saline (PBS) and were fixed in 4% paraformaldehyde for 15 min and permeablized with 0.01% Triton X-100 in PBS for 10 min. The cells were washed with PBS three times. Nonspecific sites were blocked with 5% bovine serum albumin (BSA) in PBS and incubated with the Anti-NF-κB for 1 h, followed by incubation with fluorescein isothiocyanate (FITC)-labeled secondary antibody. After washing the cells at the end of the incubation, the cells were treated with 4′,6-diamidino-2-phenylindole (DAPI) for 1 min and kept at 4° C. until further analysis. Images of the cells were acquired with a Beckman-Coulter 100 automated high-throughput microscope system and analyzed using Cytseer software (Vala Sciences, CA). The co-localization of NF-κB was quantified by measuring the PCC between the nuclear and cytoplasmic fraction of the NF-κB molecule. The PCC is a measure of the overlap between the pixel intensities of the nuclear and NF-κB images of the same cell. The PCC values can range from −1 to 1. […] A negative correlation (negative PCC value) indicates an absence of nuclear translocation.
SMILES,Sugar Binding Affinity Log(KaBA/KaConA) [1],MTT (% Cell Survival) 40 nM (HeLa cells),MTT (% Cell Survival) 80 nM (HeLa cells),MTT (% Cell Survival) 160 nM (HeLa cells),Inflammation (PCC) 40 nM (NF-κB),Inflammation (PCC) 80 nM (NF-κB),Inflammation (PCC) 160 nM (NF-κB),"nuclear or cytoplasmic localization of NF-κB (FIG. 4 images) (NF-κB; boronic acids 80 nM, 2 hrs, LPS positive control)"
OB(O)c1cccc(Cl)c1 [3-chlorophenylboronic acid],−1.03,97.1779%,73.129%,38.55%,−0.0824,0.03311,0.3965,–
OB(O)c1cccnc1Br [2-bromopyridine-3-boronic acid],−2.9,102.96%,94.00%,87.88%,−0.0553,−0.0396,0.1494,–
O=Cc1cc(B(O)O)cs1 [5-formylthiophene-3-boronic acid],−1.24,86.87%,87.03%,73.80%,−0.0359,0.00225,0.193,–
O=C(Cl)c1ccc(B2OB(c3ccc(C(=O)Cl)cc3)OB(c3ccc(C(=O)Cl)cc3)O2)cc1 [4-chlorocarbonylphenylboronic anhydride],−2.08,114.54%,107.21%,79.46%,−0.0664,−0.0012,0.09826,–
CCCc1ccc(B(O)O)cc1 [4-propylphenylboronic acid],−0.009,202.674%,202.92%,164.2%,−0.1402,−0.0786,0.1922,–
"OB(O)c1ccc(Cl)cc1Cl [2,4-dicholorophenylboronic acid]",−0.93,99.29%,81.59%,79.9%,−0.0502,0.09386,0.3067,–
NC(=O)c1ccc(B(O)O)cc1 [4-aminocarbonylphenylboronic acid],−1.03,86.57%,97.67%,57.28%,−0.0838,0.01211,0,–
"CC(C)(C)Oc1ncc(B(O)O)c(OC(C)(C)C)n1 [2,4-di-tert-butoxypyrimidin-5-ylboronic acid]",0.008,100.46%,90.60%,71.81%,−0.0888,0.03106,0.1726,predominantly cytoplasmic NF-κB
OB(O)c1ccc(O)cc1 [4-hydroxyphenylboronic acid],−1.08,203.926%,198.184%,172.8%,−0.0665,−0.1081,0.2007,–
"COc1cccc(OC)c1B(O)O [2,6-dimethoxyphenylboronic acid]",–,92.66%,78.05%,48.60%,−0.0679,0.03888,0.2607,–
OB(O)c1cncc(Br)c1 [5-bromopyridine-3-boronic acid],–,134.748%,37.2764%,30.04%,−0.038,0.1311,0.2913,–
OB(O)c1cnn(Cc2ccccc2)c1 [1-benzyl-1H-pyrazole-4-boronic acid],–,100.88%,62.54%,86.11%,−0.1081,−0.0841,0.03839,–
OB(O)c1ccc(Br)nc1 [2-bromopyridine-5-boronic acid],–,95.1013%,120.589%,35.78%,0.00604,0.078,0.1446,–
O=Cc1sccc1B(O)O [2-formyl-3-thiopheneboronic acid],–,55.3376%,40.3684%,46.21%,−0.0993,−0.0793,0.1262,–
CCCOc1ccccc1B(O)O [2-propoxyphenylboronic acid],–,45.7459%,42.2099%,41.95%,−0.0398,0.03035,−0.04954,–
OB(O)c1cc2ccccc2nc1Cl [2-chloro-3-quinolineboronic acid],–,30.1105%,44.7882%,32.43%,0.08644,0.05095,0.193,–
OB(O)c1cscc1Br [3-bromothiophene-4-boronic acid],–,76.45%,95.90%,97.49%,−0.0695,0.1568,0.1528,–
OB(O)c1ccccc1Cl [2-chlorophenylboronic acid],–,86.3068%,60.0002%,45.45%,−0.0957,.00949,0.09948,–
OB(O)C1=CCCC1 [cyclopenten-1-yl boronic acid],–,99.21%,79.90%,68.16%,−0.0551,0.01168,0.1634,–
N#Cc1cc(B(O)O)ccc1F [3-cyano-4-fluorophenylboronic acid],–,89.30%,60.46%,47.56%,−0.0231,0.1014,0,–
CCOc1ccc(B(O)O)cn1 [2-ethoxy-5-pyridine-boronic acid],–,81.40%,69.58%,33.80%,−0.1416,−0.0136,0.1498,–
CC(=O)c1ccc(B(O)O)s1 [5-acetyl-2-thiopheneboronic acid],–,84.50%,82.81%,51.27%,0.02454,0.06312,0.2343,–
Cn1c(B(O)O)cc2ccccc21 [N-methylindole-2-boronic acid],–,63.3131%,63.6075%,47.46%,−0.126,0.00746,0.1336,–
